Experiments:
Assay in all cases: Test D controlled growth environment herbicide test, pre- and postemergence
Format in all cases: in vivo
[1] = test system: Russian thistle (Salsola kali)
Summary of the method: (§1)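 Pre-emergence: seeds sown in silt loam soil were sprayed with compound in a non-phytotoxic solvent mix containing surfactant. Post-emergence: plants at 2 to 18 cm (1- to 4-leaf stage) in peat moss/vermiculite medium got the same formulation. Visual 0–100 rating versus controls after 14 to 21 d.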

[2] = test system: blackgrass (Alopecurus myosuroides)
Summary of the method: as §1

[3] = test system: bromegrass, downy (downy bromegrass, Bromus tectorum)
Summary of the method: as §1

[4] = test system: buckwheat, wild (wild buckwheat, Polygonum convolvulus)
Summary of the method: as §1

[5] = test system: chamomile (scentless chamomile, Matricaria inodora)
Summary of the method: as §1

[6] = test system: field violet (Viola arvensis)
Summary of the method: as §1

[7] = test system: galium (catchweed bedstraw, Galium aparine)
Summary of the method: as §1

[8] = test system: kochia (Kochia scoparia)
Summary of the method: as §1

[9] = test system: lambsquarters (Chenopodium album)
Summary of the method: as §1

[10] = test system: oat, wild (wild oat, Avena fatua)
Summary of the method: as §1

[11] = test system: oilseed rape (Brassica napus)
Summary of the method: as §1

[12] = test system: pigweed (Amaranthus retroflexus)
Summary of the method: as §1

[13] = test system: speedwell (bird's-eye speedwell, Veronica persica)
Summary of the method: as §1

[14] = Postemergence, 31 g ai/ha, scale 0 to 100 (0 no effect, 100 complete control)
[15] = Postemergence, 125 g ai/ha, visual rating on scale 0 (no effect) to 100 (complete control), 14 to 21 d
[16] = Postemergence, 250 g ai/ha, scale 0 to 100 (0 no effect, 100 complete control)
[17] = Preemergence, 125 g ai/ha, scale 0 to 100 (0 no effect, 100 complete control)
[18] = Preemergence, 250 g ai/ha, scale 0 to 100 (0 no effect, 100 complete control)
[19] = postemergence, 62 g ai/ha, scale 0 to 100, 0 no effect, 100 complete control
[20] = Preemergence, 62 g ai/ha, scale 0 to 100 (0 no effect, 100 complete control)

`CC(=O)Oc1c(C)nn(C)c(=O)c1-c1c(C)cc(C)c2ccccc12` [Compound 153] was tested, and the “Russian Thistle plant response rating” value [1, 14] was 25, the “Plant response rating, Russian Thistle” value [1, 15] was 45 and the “Plant response rating, Russian Thistle” value [1, 16] was 55. For the same compound, the “Plant response rating (scale of 0 to 100), Russian Thistle” value ([1]; Preemergence, 31 g ai/ha) was 0, the “Plant response rating (scale of 0 to 100), Russian Thistle” value ([1]; Preemergence, 62 g ai/ha) was 15 and the “Plant response rating, Russian Thistle” value [1, 17] was 60. For the same compound, the “Plant response rating, Russian Thistle” value [1, 18] was 100, the “Plant response rating, Russian Thistle” value [1, 19] was 20 and the “Blackgrass plant response rating” value [2, 14] was 65. For the same compound, the “Plant response rating, Blackgrass” value [2, 15] was 75, the “Plant response rating, Blackgrass” value [2, 16] was 80 and the “Plant response rating (scale of 0 to 100), Blackgrass” value ([2]; Preemergence, 31 g ai/ha) was 75. The “Plant response rating, Blackgrass” value [2, 20] was 80, the “Plant response rating, Blackgrass” value [2, 17] was 85 and the “Plant response rating, Blackgrass” value [2, 18] was 95. For the same compound, the “Plant response rating, Blackgrass” value [2, 19] was 70, the “Bromegrass, Downy plant response rating” value [3, 14] was 25 and the “Plant response rating, Bromegrass, Downy” value [3, 15] was 65. The “Plant response rating, Bromegrass, Downy” value [3, 16] was 70, the “Plant response rating (scale of 0 to 100), Bromegrass, Downy” value ([3]; Preemergence, 31 g ai/ha) was 75 and the “Plant response rating, Bromegrass, Downy” value [3, 20] was 75. For the same compound, the “Plant response rating, Bromegrass, Downy” value [3, 17] was 85, the “Plant response rating, Bromegrass, Downy” value [3, 18] was 95 and the “Plant response rating, Bromegrass, Downy” value [3, 19] was 35. The “Buckwheat, Wild plant response rating” value [4, 14] was 95, the “Plant response rating, Buckwheat, Wild” value [4, 15] was 100 and the “Plant response rating, Buckwheat, Wild” value [4, 16] was 100. The “Plant response rating (scale of 0 to 100), Buckwheat, Wild” value ([4]; Preemergence, 31 g ai/ha) was 40, the “Plant response rating, Buckwheat, Wild” value [4, 20] was 60 and the “Plant response rating, Buckwheat, Wild” value [4, 17] was 85. For the same compound, the “Plant response rating, Buckwheat, Wild” value [4, 18] was 85, the “Plant response rating, Buckwheat, Wild” value [4, 19] was 95 and the “Chamomile plant response rating” value [5, 14] was 70. For the same compound, the “Plant response rating, Chamomile” value [5, 15] was 100, the “Plant response rating, Chamomile” value [5, 16] was 100 and the “Plant response rating (scale of 0 to 100), Chamomile” value ([5]; Preemergence, 31 g ai/ha) was 100. The “Plant response rating (scale of 0 to 100), Chamomile” value ([5]; Preemergence, 62 g ai/ha) was 100, the “Plant response rating, Chamomile” value [5, 17] was 100 and the “Plant response rating, Chamomile” value [5, 18] was 100. For the same compound, the “Plant response rating, Chamomile” value [5, 19] was 95, the “Field Violet plant response rating” value [6, 14] was 85 and the “Plant response rating, Field Violet” value [6, 15] was 95. The “Plant response rating, Field Violet” value [6, 16] was 100, the “Plant response rating (scale of 0 to 100), Field Violet” value ([6]; Preemergence, 31 g ai/ha) was 100 and the “Plant response rating (scale of 0 to 100), Field Violet” value ([6]; Preemergence, 62 g ai/ha) was 100. For the same compound, the “Plant response rating, Field Violet” value [6, 17] was 100, the “Plant response rating, Field Violet” value [6, 18] was 100 and the “Plant response rating, Field Violet” value [6, 19] was 90. The “Galium plant response rating” value [7, 14] was 100, the “Plant response rating, Galium” value [7, 15] was 100 and the “Plant response rating, Galium” value [7, 16] was 100. The “Plant response rating (scale of 0 to 100), Galium” value ([7]; Preemergence, 31 g ai/ha) was 85, the “Plant response rating (scale of 0 to 100), Galium” value ([7]; Preemergence, 62 g ai/ha) was 95 and the “Plant response rating, Galium” value [7, 17] was 95. The “Plant response rating, Galium” value [7, 18] was 98, the “Plant response rating, Galium” value [7, 19] was 100 and the “Kochia plant response rating” value [8, 14] was 20. For the same compound, the “Plant response rating, Kochia” value [8, 15] was 30, the “Plant response rating, Kochia” value [8, 16] was 35 and the “Plant response rating (scale of 0 to 100), Kochia” value ([8]; Preemergence, 31 g ai/ha) was 20. For the same compound, the “Plant response rating (scale of 0 to 100), Kochia” value ([8]; Preemergence, 62 g ai/ha) was 50, the “Plant response rating, Kochia” value [8, 17] was 25 and the “Plant response rating, Kochia” value [8, 18] was 70. The “Plant response rating, Kochia” value [8, 19] was 15, the “Lambsquarters plant response rating” value [9, 14] was 75 and the “Plant response rating, Lambsquarters” value [9, 15] was 65. For the same compound, the “Plant response rating, Lambsquarters” value [9, 16] was 75, the “Plant response rating (scale of 0 to 100), Lambsquarters” value ([9]; Preemergence, 31 g ai/ha) was 70 and the “Plant response rating (scale of 0 to 100), Lambsquarters” value ([9]; Preemergence, 62 g ai/ha) was 85. The “Plant response rating, Lambsquarters” value [9, 17] was 100, the “Plant response rating, Lambsquarters” value [9, 18] was 100 and the “Plant response rating, Lambsquarters” value [9, 19] was 65. For the same compound, the “Oat, Wild plant response rating” value [10, 14] was 85, the “Plant response rating, Oat, Wild” value [10, 15] was 90 and the “Plant response rating, Oat, Wild” value [10, 16] was 98. For the same compound, the “Plant response rating (scale of 0 to 100), Oat, Wild” value ([10]; Preemergence, 31 g ai/ha) was 80, the “Plant response rating (scale of 0 to 100), Oat, Wild” value ([10]; Preemergence, 62 g ai/ha) was 95 and the “Plant response rating, Oat, Wild” value [10, 17] was 98. For the same compound, the “Plant response rating, Oat, Wild” value [10, 18] was 98, the “Plant response rating, Oat, Wild” value [10, 19] was 85 and the “Oilseed Rape plant response rating” value [11, 14] was 70. The “Plant response rating, Oilseed Rape” value [11, 15] was 85, the “Plant response rating, Oilseed Rape” value [11, 16] was 98 and the “Plant response rating (scale of 0 to 100), Oilseed Rape” value ([11]; Preemergence, 31 g ai/ha) was 75. The “Plant response rating (scale of 0 to 100), Oilseed Rape” value ([11]; Preemergence, 62 g ai/ha) was 85, the “Plant response rating, Oilseed Rape” value [11, 17] was 90 and the “Plant response rating, Oilseed Rape” value [11, 18] was 100. For the same compound, the “Plant response rating, Oilseed Rape” value [11, 19] was 85, the “Pigweed plant response rating” value [12, 14] was 80 and the “Plant response rating, Pigweed” value [12, 15] was 80. For the same compound, the “Plant response rating, Pigweed” value [12, 16] was 85, the “Plant response rating (scale of 0 to 100), Pigweed” value ([12]; Preemergence, 31 g ai/ha) was 100 and the “Plant response rating (scale of 0 to 100), Pigweed” value ([12]; Preemergence, 62 g ai/ha) was 100. The “Plant response rating, Pigweed” value [12, 17] was 100, the “Plant response rating, Pigweed” value [12, 18] was 100 and the “Plant response rating, Pigweed” value [12, 19] was 75. The “Speedwell plant response rating” value [13, 14] was 75, the “Plant response rating, Speedwell” value [13, 15] was 90 and the “Plant response rating, Speedwell” value [13, 16] was 100. For the same compound, the “Plant response rating (scale of 0 to 100), Speedwell” value ([13]; Preemergence, 31 g ai/ha) was 100, the “Plant response rating (scale of 0 to 100), Speedwell” value ([13]; Preemergence, 62 g ai/ha) was 100 and the “Plant response rating, Speedwell” value [13, 17] was 100. The “Plant response rating, Speedwell” value [13, 18] was 100 and the “Plant response rating, Speedwell” value [13, 19] was 75.

Reference: patent publication US10597388B2, “Pyridazinone herbicides” (FMC CORPORATION, priority 2014, dated 2020)
